Reference: US20250195521A1 (Revolution Medicines, Inc., priority 2020, published 2025)
pEC50, pIC50: −log10 of the molar value. Like-named read-outs stand apart in the source and are kept apart here.

Key:
Format in all cases: cell-based, human
AsPC-1 (K-Ras G12D) [1] = assay: Potency assay: pERK
Method in brief: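 pERK decrease measured after 4 h compound treatment at 37 °C (10 three-fold dilutions, duplicate wells), by either fixed-cell In-Cell Western with DRAQ5 counterstain or AlphaLISA on lysates. Signal fitted against log concentration with a four-parameter model to give IC50.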

NCI-H358 (K-Ras G12C) = assay: CellTiter-Glo cell viability assay, H358
Protocol: (§1) Note—The following protocol describes a procedure for monitoring cell viability of K-Ras mutant cancer cell lines in response to a compound of the invention. Other RAS isoforms may be employed, though the number of cells to be seeded will vary based on cell line used.
(§2) Test compounds (132.5 nL) were directly dispensed into the assay plates containing cells. […] On day 5, assay plates and their contents were equilibrated to room temperature for approximately 30 minutes. […] Luminescence was measured using the PerkinElmer Enspire. Data were normalized by the following: (Sample signal/Avg. DMSO)*100. The data were fit using a four-parameter logistic fit.

AsPC-1 (K-Ras G12D) [2] = assay: CellTiter-Glo cell viability assay, AsPC-1; conditions: read-out: AsPC-1 Cell Viability IC50
Protocol: as §1, §2

[3] = Homo sapiens, ASPC1, read-out: pERK EC50
[4] = Homo sapiens, NCI-H358, 120 h, read-out: H358 Cell Viability IC50, K-Ras G12C, 5-day treatment

| Compound | pEC50 (AsPC-1 (K-Ras G12D) [1]; [3]) | pIC50 (NCI-H358 (K-Ras G12C); [4]) | pIC50 (AsPC-1 (K-Ras G12D) [2]; Homo sapiens, ASPC1, 120 h) | also measured |
| --- | --- | --- | --- | --- |
| CCn1c(-c2cccnc2[C@H](C)OC)c2c3cc(ccc31)-c1cc(O)cc(c1)C[C@H](NC(=O)[C@H](C(C)C)N(C)C(=O)CN(C)C(=O)[C@@H]1N[C@@H]1C1CC1)C(=O)N1CCC[C@H](N1)C(=O)OCC(C)(C)C2 [Example 133, (2R,3R)-3-cyclopropyl-N-(2-(((2S)-1-(((6^3S,4S)-1^1-ethyl-25-hydroxy-1^2-(2-((S)-1-methoxyethyl)pyridin-3-yl)-10,10-dimethyl-5,7-dioxo-61,62,63,64,65,66-hexahydro-1^1H-8-oxa-1 (5,3)-indola-6 (1,3)-pyridazina-2 (1,3)-benzenacycloundecaphane-4-yl)amino)-3-methyl-1-oxobutan-2-yl) (methyl)amino)-2-oxoethyl)-N-methylaziridine-2-carboxamide] | > 5.30 | 7.00 to 8.00 | 7.00 to 8.00 | – |
| CCn1c(-c2cccnc2[C@H](C)OC)c2c3cc(ccc31)-c1cc(O)cc(c1)C[C@H](NC(=O)[C@H](C(C)C)N(C)C(=O)CN(C)C(=O)[C@H]1N[C@@H]1C1CC1)C(=O)N1CCC[C@H](N1)C(=O)OCC(C)(C)C2 [Example 135] | – | – | 6.00 to 7.00 | pEC50 (AsPC-1 (K-Ras G12D) [1]; read-out: pERK EC50, AsPC-1 KRAS G12D): > 5.30; pIC50 (NCI-H358 (K-Ras G12C); read-out: H358 Cell Viability IC50, K-Ras G12C, 5-day treatment): 7.00 to 8.00 |
| CCn1c(-c2cccnc2[C@H](C)OC)c2c3cc(ccc31)-c1cc(O)cc(c1)C[C@H](NC(=O)[C@H](C(C)C)N(C)C(=O)CN(C)C(=O)[C@H]1N[C@@H]1C1CC1)C(=O)N1CCC[C@H](N1)C(=O)OCC(C)(C)C2 [Example 136] | > 5.30 | > 8.00 | – | pIC50 (AsPC-1 (K-Ras G12D) [2]; K-Ras G12D, 5-day treatment): 6.00 to 7.00 |
| CCn1c(-c2cccnc2[C@H](C)OC)c2c3cc(ccc31)-c1cc(O)cc(c1)C[C@H](NC(=O)[C@H](C(C)C)N(C)C(=O)CN(C)C(=O)[C@@H]1CN1CCCOC)C(=O)N1CCC[C@H](N1)C(=O)OCC(C)(C)C2 (stereo partly drawn) [Example 137] | > 5.30 | > 8.00 | 6.00 to 7.00 | – |
| CCn1c(-c2cccnc2[C@H](C)OC)c2c3cc(ccc31)-c1cc(O)cc(c1)C[C@H](NC(=O)[C@H](C(C)C)N(C)C(=O)CNC(=O)[C@@H]1N[C@@H]1C1CC1)C(=O)N1CCC[C@H](N1)C(=O)OCC(C)(C)C2 [Example 141] | > 5.30 | 6.00 to 7.00 | 6.00 to 7.00 | – |
| CCn1c(-c2cccnc2[C@H](C)OC)c2c3cc(ccc31)-c1cc(O)cc(c1)C[C@H](NC(=O)[C@H](C(C)C)N(C)C(=O)CN(C)C(=O)[C@H]1CN1C(C)C)C(=O)N1CCC[C@H](N1)C(=O)OCC(C)(C)C2 (stereo partly drawn) [Example 142] | > 5.30 | > 8.00 | 6.00 to 7.00 | – |
| CCC(C)N(C)C(=O)c1cncc(-c2c3c4cc(ccc4n2CC)-c2cc(O)cc(c2)C[C@H](NC(=O)[C@H](C(C)C)N(C)C(=O)CN(C)C(=O)[C@H]2CN2)C(=O)N2CCC[C@H](N2)C(=O)OCC(C)(C)C3)c1 (stereo partly drawn) [Example 144] | > 5.30 | 7.00 to 8.00 | 6.00 to 7.00 | – |
| CCn1c(-c2cccnc2[C@H](C)OC)c2c3cc(ccc31)-c1cc(O)cc(c1)C[C@H](NC(=O)[C@H](C(C)C)N(C)C(=O)CN(C)C(=O)[C@@H]1CN1C(C)C)C(=O)N1CCC[C@H](N1)C(=O)OCC(C)(C)C2 (stereo partly drawn) [Example 148] | > 5.30 | > 8.00 | 6.00 to 7.00 | – |
| CCn1c(-c2cccnc2[C@H](C)OC)c2c3cc(ccc31)-c1cc(O)cc(c1)C[C@H](NC(=O)[C@H](C(C)C)N(C)C(=O)CN(C)C(=O)[C@@H]1CN1)C(=O)N1CCC[C@H](N1)C(=O)OCC(C)(C)C2 [Example 150] | > 5.30 | > 8.00 | 6.00 to 7.00 | – |
| CCn1c(-c2cccnc2[C@H](C)OC)c2c3cc(ccc31)-c1cc(O)cc(c1)C[C@H](NC(=O)[C@H](C(C)C)N(C)C(=O)CN(C)C(=O)[C@H]1CN1Cc1ccccc1F)C(=O)N1CCC[C@H](N1)C(=O)OCC(C)(C)C2 (stereo partly drawn) [Example 155] | > 5.30 | > 8.00 | 6.00 to 7.00 | – |
| CCn1c(-c2cccnc2[C@H](C)OC)c2c3cc(ccc31)-c1cc(O)cc(c1)C[C@H](NC(=O)[C@H](C(C)C)N(C)C(=O)CN(C)C(=O)[C@H]1CN1Cc1ccccc1CO)C(=O)N1CCC[C@H](N1)C(=O)OCC(C)(C)C2 (stereo partly drawn) [Example 156] | > 5.30 | > 8.00 | 6.00 to 7.00 | – |
| CCn1c(-c2cccnc2[C@H](C)OC)c2c3cc(ccc31)-c1cc(O)cc(c1)C[C@H](NC(=O)[C@H](C(C)C)N(C)C(=O)CN(C)C(=O)[C@H]1CN1CCOC)C(=O)N1CCC[C@H](N1)C(=O)OCC(C)(C)C2 (stereo partly drawn) [Example 159] | > 5.30 | > 8.00 | 6.00 to 7.00 | – |
| CCn1c(-c2cccnc2[C@H](C)OC)c2c3cc(ccc31)-c1cc(O)cc(c1)C[C@H](NC(=O)[C@H](C(C)C)N(C)C(=O)CN(C)C(=O)[C@@H]1CN1CCOC)C(=O)N1CCC[C@H](N1)C(=O)OCC(C)(C)C2 (stereo partly drawn) [Example 160] | > 5.30 | > 8.00 | 6.00 to 7.00 | – |
| CCn1c(-c2cccnc2[C@H](C)OC)c2c3cc(ccc31)-c1cc(O)cc(c1)C[C@H](NC(=O)[C@H](C(C)C)N(C)C(=O)CN(C)C(=O)[C@H]1CN1CCCOC)C(=O)N1CCC[C@H](N1)C(=O)OCC(C)(C)C2 (stereo partly drawn) [Example 201] | > 5.30 | > 8.00 | 6.00 to 7.00 | – |
| CCn1c(-c2cc(N3CCN(C)CC3)cnc2[C@H](C)OC)c2c3cc(ccc31)-c1cc(O)cc(c1)C[C@H](NC(=O)[C@H](C1CCCC1)N(C)C(=O)CN(C)C(=O)[C@H]1CN1)C(=O)N1CCC[C@H](N1)C(=O)OCC(C)(C)C2 [Example 209, (2R)—N-(2-(((1S)-1-cyclopentyl-2-(((6^3S,4S)-1^1-ethyl-25-hydroxy-12-(2-((S)-1-methoxyethyl)-5-(4-methylpiperazin-1-yl)pyridin-3-yl)-10,10-dimethyl-5,7-dioxo-6^1,6^2,6^3,6^4,6^5,6^6-hexahydro-1^1H-8-oxa-1 (5,3)-indola-6 (1,3)-pyridazina-2 (1,3)-benzenacycloundecaphane-4-yl)amino)-2-oxoethyl) (methyl)amino)-2-oxoethyl)-N-methylaziridine-2-carboxamide] | > 5.30 | > 8.00 | > 8.00 | – |
| CCn1c(-c2cccnc2[C@H](C)OC)c2c3cc(ccc31)-c1cc(O)cc(c1)C[C@H](NC(=O)[C@H](C1CCCC1)N1CC[C@]3(CCN(C(=O)[C@@H]4N[C@@H]4C4CC4)C3)C1=O)C(=O)N1CCC[C@H](N1)C(=O)OCC(C)(C)C2 [Example 214, (2S)-2-cyclopentyl-2-((S)-7-((2R,3R)-3-cyclopropylaziridine-2-carbonyl)-1-oxo-2,7-diazaspiro[4.4]nonan-2-yl)-N-((6^3S,4S)-1^1-ethyl-25-hydroxy-1^2-(2-((S)-1-methoxyethyl)pyridin-3-yl)-10,10-dimethyl-5,7-dioxo-6^1,6^2,6^3,6^4,6^5,6^6-hexahydro-1^1H-8-oxa-1 (5,3)-indola-6 (1,3)-pyridazina-2 (1,3)-benzenacycloundecaphane-4-yl) acetamide] | – | – | – | pEC50 (AsPC-1 (K-Ras G12D) [1]; Homo sapiens, ASPC1, AsPC-1 KRAS G12D, read-out: pERK EC50): > 5.30; pIC50 (NCI-H358 (K-Ras G12C); Homo sapiens, NCI-H358, 120 h, K-Ras G12C, 5-day treatment, read-out: H358 Cell Viability IC50): 7.00 to 8.00; pIC50 (AsPC-1 (K-Ras G12D) [2]; Homo sapiens, ASPC1, 120 h, K-Ras G12D, 5-day treatment): 7.00 to 8.00 |
| CCn1c(-c2cccnc2[C@H](C)OC)c2c3cc(ccc31)-c1cc(O)cc(c1)C[C@H](NC(=O)[C@H](C(C)C)N(C)C(=O)CN(C)C(=O)[C@@]1(C)CN1)C(=O)N1CCC[C@H](N1)C(=O)OCC(C)(C)C2 [Example 256] | > 5.30 | 7.00 to 8.00 | 6.00 to 7.00 | – |
| CCn1c(-c2cccnc2[C@H](C)OC)c2c3cc(ccc31)-c1cc(O)cc(c1)C[C@H](NC(=O)[C@H](C(C)C)N(C)C(=O)CN(C)C(=O)[C@]1(C)CN1)C(=O)N1CCC[C@H](N1)C(=O)OCC(C)(C)C2 [Example 257] | > 5.30 | 7.00 to 8.00 | 6.00 to 7.00 | – |
| CCn1c(-c2cccnc2[C@H](C)OC)c2c3cc(ccc31)-c1cc(O)cc(c1)C[C@H](NC(=O)[C@H](C(C)C)N(C)C(=O)CN(C)C(=O)[C@@H]1N[C@@H]1C(F)(F)F)C(=O)N1CCC[C@H](N1)C(=O)OCC(C)(C)C2 [Example 258] | > 5.30 | 7.00 to 8.00 | 6.00 to 7.00 | – |
| CCn1c(-c2cccnc2[C@H](C)OC)c2c3cc(ccc31)-c1cc(O)cc(c1)C[C@H](NC(=O)[C@H](C(C)C)N(C)C(=O)CN(C)C(=O)[C@H]1N[C@H]1C(F)(F)F)C(=O)N1CCC[C@H](N1)C(=O)OCC(C)(C)C2 [Example 259] | > 5.30 | 7.00 to 8.00 | 6.00 to 7.00 | – |
| CCn1c(-c2cccnc2[C@H](C)OC)c2c3cc(ccc31)-c1cc(O)cc(c1)C[C@H](NC(=O)[C@H](C(C)C)N(C)C(=O)CN(C)C(=O)[C@H]1N[C@@H]1C(F)(F)F)C(=O)N1CCC[C@H](N1)C(=O)OCC(C)(C)C2 [Example 261] | > 5.30 | > 8.00 | 6.00 to 7.00 | – |
| CC[C@H]1N[C@H]1C(=O)N(C)CC(=O)N(C)[C@H](C(=O)N[C@H]1Cc2cc(O)cc(c2)-c2ccc3c(c2)c(c(-c2cccnc2[C@H](C)OC)n3CC)CC(C)(C)COC(=O)[C@@H]2CCCN(N2)C1=O)C(C)C [Example 262] | > 5.30 | 7.00 to 8.00 | 6.00 to 7.00 | – |
